Laboratory results published in patent US20230174584A1, “Antibiotic Compounds” (priority 2019, published 2023).
≈ marks a conversion by molar mass, not a printed value.

Tests used:
Test in all cases: MIC assay
Format in all cases: cell-based, Enterococcus faecium
[1] = tested on: E. faecium E0013; conditions: E. faecium E0013, VanA
How it was run: (§1)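 Following CLSI guidance, the assay uses twofold compound dilutions in tryptic soy broth plus 0.002% polysorbate 80, equal-volume inoculum of 10^6 CFU/mL, and a 24 h shaken incubation at 37 °C. Values are medians of triplicate or more, in μg/mL.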

[2] = tested on: E. faecium E0072; conditions: E. faecium E0072, VanA
How it was run: as §1

[3] = tested on: E. faecium E0333; conditions: E. faecium E0333, VanA
How it was run: as §1

[4] = tested on: E. faecium E0506; conditions: E. faecium E0506, VanA
How it was run: as §1

[5] = tested on: E. faecium E1130; conditions: E. faecium E1130, VanA
How it was run: as §1

[6] = tested on: E. faecium E1679; conditions: E. faecium E1679, VanA
How it was run: as §1

[7] = tested on: E. faecium E1763; conditions: E. faecium E1763, VanA
How it was run: as §1

[8] = tested on: E. faecium E2297; conditions: E. faecium E2297, VanA
How it was run: as §1

[9] = tested on: E. faecium E2365; conditions: E. faecium E2365, VanB
How it was run: as §1

[10] = tested on: E. faecium E6016; conditions: E. faecium E6016, VanA
How it was run: as §1

[11] = tested on: E. faecium E7319; conditions: E. faecium E7319, VanA
How it was run: as §1

[12] = tested on: E. faecium E7329; conditions: E. faecium E7329, VanA
How it was run: as §1

[13] = tested on: E. faecium E7401; conditions: E. faecium E7401, VanB
How it was run: as §1

[14] = tested on: E. faecium E7403; conditions: E. faecium E7403, VanB
How it was run: as §1

[15] = tested on: E. faecium E7413; conditions: E. faecium E7413, VanA
How it was run: as §1

[16] = tested on: E. faecium E7424; conditions: E. faecium E7424, VanB
How it was run: as §1

[17] = tested on: E. faecium E7464; conditions: E. faecium E7464, VanB
How it was run: as §1

[18] = tested on: E. faecium E8218; conditions: E. faecium E8218, VanB
How it was run: as §1

[19] = tested on: E. faecium E8235; conditions: E. faecium E8235, VanB
How it was run: as §1

[20] = tested on: E. faecium E980
How it was run: as §1

[21] = tested on: E. faecium EO321; conditions: E. faecium EO321, VanA
How it was run: as §1

Compound: CCCCCCCNC(N)=Nc1ccc(CN[C@@]2(C)C[C@H](O[C@H]3[C@H](Oc4c5cc6cc4Oc4ccc(cc4Cl)[C@@H](O)[C@@H](NC(=O)[C@@H](CC(C)C)NC)C(=O)N[C@@H](CC(N)=O)C(=O)N[C@H]6C(=O)N[C@H]4C(=O)N[C@H](C(=O)N[C@H](C(=O)O)c6cc(O)cc(O)c6-c6cc4ccc6O)[C@H](O)c4ccc(c(Cl)c4)O5)O[C@H](CO)[C@@H](O)[C@@H]3O)O[C@@H](C)[C@H]2O)cc1 [Compound 5]
- MIC [1]: 4 µg/mL (≈ 2.36 µM)
- MIC [2]: 0.25 µg/mL (≈ 0.148 µM)
- MIC [3]: 8 µg/mL (≈ 4.72 µM)
- MIC [4]: 2 µg/mL (≈ 1.18 µM)
- MIC [5]: ≤0.008 µg/mL
- MIC [6]: 16 µg/mL (≈ 9.44 µM)
- MIC [7]: 0.25 µg/mL (≈ 0.148 µM)
- MIC [8]: 2 µg/mL (≈ 1.18 µM)
- MIC [9]: ≤0.008 µg/mL
- MIC [10]: 1 µg/mL (≈ 0.59 µM)
- MIC [11]: 0.5 µg/mL (≈ 0.295 µM)
- MIC [12]: ≤0.008 µg/mL
- MIC [13]: ≤0.008 µg/mL
- MIC [14]: ≤0.008 µg/mL
- MIC [15]: 8 µg/mL (≈ 4.72 µM)
- MIC [16]: ≤0.008 µg/mL
- MIC [17]: ≤0.008 µg/mL
- MIC [18]: ≤0.008 µg/mL
- MIC [19]: ≤0.008 µg/mL
- MIC ([20]; E. faecium E980 VSE): ≤0.007812 µg/mL
- MIC [21]: 8 µg/mL (≈ 4.72 µM)

Compound: CCCCCCCCNC(N)=Nc1ccc(CN[C@@]2(C)C[C@H](O[C@H]3[C@H](Oc4c5cc6cc4Oc4ccc(cc4Cl)[C@@H](O)[C@@H](NC(=O)[C@@H](CC(C)C)NC)C(=O)N[C@@H](CC(N)=O)C(=O)N[C@H]6C(=O)N[C@H]4C(=O)N[C@H](C(=O)N[C@H](C(=O)O)c6cc(O)cc(O)c6-c6cc4ccc6O)[C@H](O)c4ccc(c(Cl)c4)O5)O[C@H](CO)[C@@H](O)[C@@H]3O)O[C@@H](C)[C@H]2O)cc1 [Compound 6]
- MIC [1]: 1 µg/mL (≈ 0.585 µM)
- MIC [2]: 0.5 µg/mL (≈ 0.293 µM)
- MIC [3]: 4 µg/mL (≈ 2.34 µM)
- MIC [4]: 2 µg/mL (≈ 1.17 µM)
- MIC [5]: ≤0.008 µg/mL
- MIC [6]: 8 µg/mL (≈ 4.68 µM)
- MIC [7]: 0.031 µg/mL (≈ 0.0181 µM)
- MIC [8]: 1 µg/mL (≈ 0.585 µM)
- MIC [9]: ≤0.008 µg/mL
- MIC [10]: 0.5 µg/mL (≈ 0.293 µM)
- MIC [11]: 0.125 µg/mL (≈ 0.0732 µM)
- MIC [12]: ≤0.008 µg/mL
- MIC [13]: ≤0.008 µg/mL
- MIC [14]: ≤0.008 µg/mL
- MIC [15]: 4 µg/mL (≈ 2.34 µM)
- MIC [16]: ≤0.008 µg/mL
- MIC [17]: ≤0.008 µg/mL
- MIC [18]: ≤0.008 µg/mL
- MIC [19]: ≤0.008 µg/mL
- MIC ([20]; E. faecium E980 VSE): 0.01562 µg/mL (≈ 0.00914 µM)
- MIC [21]: 4 µg/mL (≈ 2.34 µM)

Compound: CCCCCCCCCNC(N)=Nc1ccc(CN[C@@]2(C)C[C@H](O[C@H]3[C@H](Oc4c5cc6cc4Oc4ccc(cc4Cl)[C@@H](O)[C@@H](NC(=O)[C@@H](CC(C)C)NC)C(=O)N[C@@H](CC(N)=O)C(=O)N[C@H]6C(=O)N[C@H]4C(=O)N[C@H](C(=O)N[C@H](C(=O)O)c6cc(O)cc(O)c6-c6cc4ccc6O)[C@H](O)c4ccc(c(Cl)c4)O5)O[C@H](CO)[C@@H](O)[C@@H]3O)O[C@@H](C)[C@H]2O)cc1 [Compound 7]
- MIC [1]: 0.5 µg/mL (≈ 0.29 µM)
- MIC [2]: 0.125 µg/mL (≈ 0.0726 µM)
- MIC [3]: 1 µg/mL (≈ 0.58 µM)
- MIC [4]: 0.5 µg/mL (≈ 0.29 µM)
- MIC [5]: ≤0.008 µg/mL
- MIC [6]: 4 µg/mL (≈ 2.32 µM)
- MIC [7]: ≤0.008 µg/mL
- MIC [8]: 0.5 µg/mL (≈ 0.29 µM)
- MIC [9]: ≤0.008 µg/mL
- MIC [10]: 0.25 µg/mL (≈ 0.145 µM)
- MIC [11]: 0.063 µg/mL (≈ 0.0366 µM)
- MIC [12]: ≤0.008 µg/mL
- MIC [13]: ≤0.008 µg/mL
- MIC [14]: ≤0.008 µg/mL
- MIC [15]: 2 µg/mL (≈ 1.16 µM)
- MIC [16]: ≤0.008 µg/mL
- MIC [17]: ≤0.008 µg/mL
- MIC [18]: ≤0.008 µg/mL
- MIC [19]: ≤0.008 µg/mL
- MIC ([20]; E. faecium E980 VSE): 0.03125 µg/mL (≈ 0.0181 µM)
- MIC [21]: 1 µg/mL (≈ 0.58 µM)

Compound: CCCCCCN(CCCCCC)C(N)=Nc1ccc(CN[C@@]2(C)C[C@H](O[C@H]3[C@H](Oc4c5cc6cc4Oc4ccc(cc4Cl)[C@@H](O)[C@@H](NC(=O)[C@@H](CC(C)C)NC)C(=O)N[C@@H](CC(N)=O)C(=O)N[C@H]6C(=O)N[C@H]4C(=O)N[C@H](C(=O)N[C@H](C(=O)O)c6cc(O)cc(O)c6-c6cc4ccc6O)[C@H](O)c4ccc(c(Cl)c4)O5)O[C@H](CO)[C@@H](O)[C@@H]3O)O[C@@H](C)[C@H]2O)cc1 [Compound 12]
- MIC [1]: 2 µg/mL (≈ 1.13 µM)
- MIC [2]: 0.25 µg/mL (≈ 0.142 µM)
- MIC [3]: 2 µg/mL (≈ 1.13 µM)
- MIC [4]: 1 µg/mL (≈ 0.567 µM)
- MIC [5]: ≤0.008 µg/mL
- MIC [6]: 8 µg/mL (≈ 4.53 µM)
- MIC [7]: 0.031 µg/mL (≈ 0.0176 µM)
- MIC [8]: 1 µg/mL (≈ 0.567 µM)
- MIC [9]: ≤0.008 µg/mL
- MIC [10]: 0.5 µg/mL (≈ 0.283 µM)
- MIC [11]: 0.25 µg/mL (≈ 0.142 µM)
- MIC [12]: ≤0.008 µg/mL
- MIC [13]: ≤0.008 µg/mL
- MIC [14]: ≤0.008 µg/mL
- MIC [15]: 2 µg/mL (≈ 1.13 µM)
- MIC [16]: ≤0.008 µg/mL
- MIC [17]: ≤0.008 µg/mL
- MIC [18]: ≤0.008 µg/mL
- MIC [19]: ≤0.008 µg/mL
- MIC ([20]; E. faecium E980 VSE): ≤0.007812 µg/mL
- MIC [21]: 2 µg/mL (≈ 1.13 µM)

Compound: CN[C@H](CC(C)C)C(=O)N[C@H]1C(=O)N[C@@H](CC(N)=O)C(=O)N[C@H]2C(=O)N[C@H]3C(=O)N[C@H](C(=O)N[C@H](C(=O)O)c4cc(O)cc(O)c4-c4cc3ccc4O)[C@H](O)c3ccc(c(Cl)c3)Oc3cc2cc(c3O[C@@H]2O[C@H](CO)[C@@H](O)[C@H](O)[C@H]2O[C@H]2C[C@](C)(NCc3ccc(N=C(N)NC/C=C(\C)CCC=C(C)C)cc3)[C@H](O)[C@H](C)O2)Oc2ccc(cc2Cl)[C@H]1O [Compound 14]
- MIC [1]: 2 µg/mL (≈ 1.15 µM)
- MIC [2]: 0.5 µg/mL (≈ 0.289 µM)
- MIC [3]: 8 µg/mL (≈ 4.62 µM)
- MIC [4]: 2 µg/mL (≈ 1.15 µM)
- MIC [5]: ≤0.008 µg/mL
- MIC [6]: 16 µg/mL (≈ 9.23 µM)
- MIC [7]: 0.125 µg/mL (≈ 0.0721 µM)
- MIC [8]: 2 µg/mL (≈ 1.15 µM)
- MIC [9]: ≤0.008 µg/mL
- MIC [10]: 2 µg/mL (≈ 1.15 µM)
- MIC [11]: 0.5 µg/mL (≈ 0.289 µM)
- MIC [12]: ≤0.008 µg/mL
- MIC [13]: ≤0.008 µg/mL
- MIC [14]: ≤0.008 µg/mL
- MIC [15]: 8 µg/mL (≈ 4.62 µM)
- MIC [16]: ≤0.008 µg/mL
- MIC [17]: ≤0.008 µg/mL
- MIC [18]: ≤0.008 µg/mL
- MIC [19]: ≤0.008 µg/mL
- MIC ([20]; E. faecium E980 VSE): ≤0.007812 µg/mL
- MIC [21]: 8 µg/mL (≈ 4.62 µM)

Compound: CN[C@H](CC(C)C)C(=O)N[C@H]1C(=O)N[C@@H](CC(N)=O)C(=O)N[C@H]2C(=O)N[C@H]3C(=O)N[C@H](C(=O)N[C@H](C(=O)O)c4cc(O)cc(O)c4-c4cc3ccc4O)[C@H](O[C@H]3C[C@](C)(N)[C@@H](O)[C@H](C)O3)c3ccc(c(Cl)c3)Oc3cc2cc(c3O[C@@H]2O[C@H](CO)[C@@H](O)[C@H](O)[C@H]2O[C@H]2C[C@](C)(NCc3ccc(-c4ccc(Cl)cc4)cc3)[C@@H](O)[C@H](C)O2)Oc2ccc(cc2Cl)[C@H]1O [Oritavancin]
- MIC ([20]; Enterococcus faecium, E980): 0.0625 µg/mL (≈ 0.0349 µM)
